Laboratory results as given in US20210330611A1, “THERAPY FOR NEUROLOGICAL DISEASES/DISORDERS” (priority 2020, published 2021).
Counter-ions that a name gives are not always drawn. Like-named read-outs stand apart in the source and are kept apart here.

Assays:
[1] = tested on: fibrin-induced microglia activation; experiment: Image-based assay of fibrin-induced microglia activation (HTS and dose response); assay type: cell-based, rat; settings: for inhibition at 10 µM: Rattus norvegicus, Microglia, read-out: Fibrin % inhibition
[2] = tested on: LPS-induced microglia activation; experiment: Image-based assay of LPS-induced microglia activation (HTS and dose response); assay type: cell-based, rat; settings: for inhibition at 10 µM: Rattus norvegicus, Microglia, read-out: LPS % inhibition
[3] = tested on: fibrin- and LPS-induced microglia activation; experiment: cells; assay type: cell-based, rat; settings: HTS of 1907 compounds, quadrant by fibrin and LPS inhibition
[4] = tested on: primary rat microglia; experiment: Cell toxicity (dead cells, size <150 μm2) in LPS assay; settings: primary microglia HTS, 10 μM, LPS assay, cell size <150 μm^2 as marker of toxicity
[5] = tested on: primary rat microglia; experiment: Cell toxicity (dead cells, size <150 μm2) in coated fibrin (cFib) assay; settings: primary microglia HTS, 10 μM, fibrin assay, cell size <150 μm^2 as marker of toxicity;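 further: share of dead cells sized under 150 µm2 at 10 µM in fibrin-stimulated microglia HTS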
[6] = primary microglia HTS, 10 μM, fibrin-stimulated, cell size >800 μm^2 as marker of activation
[7] = primary microglia HTS, 10 μM, LPS-stimulated, cell size >800 μm^2 as marker of activation

| Structure (SMILES) | inhibition at 10 µM [1, 6] | inhibition at 10 µM [2, 7] | Quadrant (FIG. 5b) [3] | LPS % cell toxicity [4] | Fibrin % cell toxicity [5] | Fibrin % inhibition [1, 6] | LPS % inhibition [2, 7] | inhibition at 10 µM [1] | inhibition at 10 µM [2] |
| --- | --- | --- | --- | --- | --- | --- | --- | --- | --- |
| Cc1cc2nc3ccc(N(C)C)cc3[s+]c2cc1N [Tolonium Chloride] | -4% | 43% | Q4 | 1% | 1% | – | – | – | – |
| Cc1ccc(C(=O)C(C)CN2CCCCC2)cc1 (centres unmarked) [Tolperisone] | -7% | 11% | Q4 | 0% | 1% | – | – | – | – |
| CC1(C)O[C@@H]2[C@@H](CO[C@@]3(COS(N)(=O)=O)OC(C)(C)O[C@@H]23)O1 [Topiramate] | 4% | 5% | Q4 | 0% | 1% | – | – | – | – |
| Cc1cccc(Nc2ccncc2S(=O)(=O)NC(=O)NC(C)C)c1 [Torasemide] | -29% | 7% | Q4 | 0% | 1% | – | – | – | – |
| COc1ccc(/C=C/C(=O)Nc2ccccc2C(=O)O)cc1OC [Tranilast] | 35% | 22% | Q4 | 0% | 0% | – | – | – | – |
| CC(C)OC(=O)CCC/C=C\C[C@@H]1[C@@H](/C=C/[C@@H](O)COc2cccc(C(F)(F)F)c2)[C@H](O)C[C@@H]1O [Travoprost] | 4% | 15% | Q4 | 0% | 1% | – | – | – | – |
| CC(=O)OCC(COC(C)=O)OC(C)=O [Triacetin] | -32% | 15% | Q4 | 0% | 1% | – | – | – | – |
| NS(=O)(=O)c1cc2c(cc1Cl)NC(C(Cl)Cl)NS2(=O)=O (centres unmarked) [Trichlormethiazide] | 17% | 13% | Q4 | 0% | 1% | – | – | – | – |
| Oc1cc(Cl)ccc1Oc1ccc(Cl)cc1Cl [Triclosan] | -6% | 16% | Q4 | 1% | 1% | – | – | – | – |
| C[C@]12CC[C@H]3[C@@H](CC[C@@]45O[C@@H]4C(O)=C(C#N)C[C@]35C)[C@@H]1CC[C@@H]2O [Trilostane] | -24% | 11% | Q4 | 0% | 0% | – | – | – | – |
| COc1ccc(CN2CCNCC2)c(OC)c1OC [Trimetazidine] | -18% | 1% | Q4 | 0% | 1% | – | – | – | – |
| CN1C(=O)OC(C)(C)C1=O [Trimethadione] | -5% | 14% | Q4 | 0% | 1% | – | – | – | – |
| COc1cc(C(=O)NCc2ccc(OCCN(C)C)cc2)cc(OC)c1OC [Trimethobenzamide] | 16% | 17% | Q4 | 0% | 1% | – | – | – | – |
| COc1cc(C(=O)N2CCOCC2)cc(OC)c1OC [Trimetozine] | 2% | 12% | Q4 | 0% | 1% | – | – | – | – |
| Cc1cc2cc3c(C)cc(=O)oc3c(C)c2o1 [Trioxsalen] | -18% | 18% | Q4 | 0% | 1% | – | – | – | – |
| CN(C)CCN(Cc1ccccc1)c1ccccn1 [Tripelennamine] | 14% | 25% | Q4 | 0% | 1% | – | – | – | – |
| CC(C)C[C@H](NC(=O)[C@@H](Cc1c[nH]c2ccccc12)NC(=O)[C@H](Cc1ccc(O)cc1)NC(=O)[C@H](CO)NC(=O)[C@H](Cc1c[nH]c2ccccc12)NC(=O)[C@H](Cc1c[nH]cn1)NC(=O)[C@@H]1CCC(=O)N1)C(=O)N[C@@H](CCCNC(=N)N)C(=O)N1CCC[C@H]1C(=O)NCC(N)=O [Triptorelin] | – | – | Q4 | 0% | 1% | −15% | 4% | – | – |

| Structure (SMILES) | inhibition at 10 µM [1, 6] | inhibition at 10 µM [2, 7] | Quadrant (FIG. 5b) [3] | LPS % cell toxicity [4] | Fibrin % cell toxicity [5] | Fibrin % inhibition [1, 6] | LPS % inhibition [2, 7] | inhibition at 10 µM [1] | inhibition at 10 µM [2] |
| --- | --- | --- | --- | --- | --- | --- | --- | --- | --- |
| Cc1c(C)c2c(c(C)c1O)CCC(C)(COc1ccc(CC3SC(=O)NC3=O)cc1)O2 (centres unmarked) [Troglitazone] | -22% | 4% | Q4 | 0% | 1% | – | – | – | – |
| CN1[C@@H]2CC[C@H]1C[C@@H](OC(=O)c1c[nH]c3ccccc13)C2 [Tropisetron] | -28% | 14% | Q4 | 0% | 0% | – | – | – | – |
| O=C(O[C@H]1C[C@H]2CC[C@@H](C1)[N+]21CCCC1)C(O)(c1ccccc1)c1ccccc1 [Trospium Chloride] | -39% | 9% | Q4 | 1% | 0% | – | – | – | – |
| C[C@@H]1O[C@@H](OC[C@H]2O[C@@H](Oc3c(-c4ccc(OCCO)c(OCCO)c4)oc4cc(OCCO)cc(O)c4c3=O)[C@H](O)[C@@H](O)[C@@H]2O)[C@H](O)[C@H](O)[C@H]1O [Troxerutin] | -10% | 8% | Q4 | 0% | 0% | – | – | – | – |
| CCCCCC(C)N (centres unmarked) [Tuaminoheptane Sulfate] | -7% | 19% | Q4 | 0% | 1% | – | – | – | – |
| COc1cc2c3cc1Oc1cc(ccc1O)C[C@@H]1c4c(cc(OC)c(O)c4Oc4ccc(cc4)C[C@@H]3N(C)CC2)CC[N+]1(C)C [Tubocurarine] | -1% | 19% | Q4 | 0% | 0% | – | – | – | – |
| CC(C)(C)NCC(O)c1ccccc1Cl.Cl (centres unmarked) [Tulobuterol, Tulobuterol Hydrochloride] | – | – | Q4 | 0% | 0% | 21% | 36% | – | – |
| O=c1cc[nH]c(=O)[nH]1 [Uracil] | 3% | 11% | Q4 | 0% | 0% | – | – | – | – |
| COc1ccccc1N1CCN(CCCNc2cc(=O)n(C)c(=O)n2C)CC1 [Urapidil Hydrochloride] | -6% | 20% | Q4 | 0% | 1% | – | – | – | – |
| NC(N)=O [Urea] | – | – | Q4 | 0% | 1% | −14% | 20% | – | – |
| C[C@H](CCC(=O)O)[C@H]1CC[C@H]2[C@@H]3[C@@H](O)C[C@@H]4C[C@H](O)CC[C@]4(C)[C@H]3CC[C@]12C [Ursodeoxycholic Acid] | – | – | Q4 | 0% | 1% | −18% | 1% | – | – |
| C[C@H](CCC(=O)O)[C@H]1CC[C@H]2[C@@H]3[C@@H](O)C[C@@H]4C[C@H](O)CC[C@]4(C)[C@H]3CC[C@]12C [Ursodiol] | – | – | Q4 | 0% | 0% | −21% | 18% | – | – |
| CC(C)[C@H](N)C(=O)OCCOCn1cnc2c(=O)[nH]c(N)nc21 [Valaciclovir] | 12% | 15% | Q4 | 0% | 1% | – | – | – | – |
| Cc1onc(-c2ccccc2)c1-c1ccc(S(N)(=O)=O)cc1 [Valdecoxib] | -39% | -4% | Q4 | 0% | 1% | – | – | – | – |
| CC(C)[C@H](N)C(=O)OCC(CO)OCn1cnc2c(=O)nc(N)[nH]c21 (some centres unmarked) [Valganciclovir] | -12% | 14% | Q4 | 1% | 0% | – | – | – | – |
| CCCCC(=O)N(Cc1ccc(-c2ccccc2-c2nnn[nH]2)cc1)[C@H](C(=O)O)C(C)C [Valsartan] | – | – | Q4 | 0% | 0% | – | – | -17% | 12% |
| CC(=O)O[C@H]1C[C@@H]2CC[C@@H]3[C@H](CC[C@@]4(C)[C@H]3C[C@H]([N+]3(C)CCCCC3)[C@@H]4OC(C)=O)[C@@]2(C)C[C@@H]1N1CCCCC1 [Vecuronium Bromide] | – | – | Q4 | 0% | 1% | 7% | 23% | – | – |
